Experimental data from BindingDB's records for doi:10.1111/cbdd.12205 (Srtm University, 2014).

What was measured:
[1] = target: Xanthine dehydrogenase/oxidase (Bos taurus, UniProt P80457); assay: Xanthine Oxidase Activity; settings: pH 7.6; 25 °C
Method: The enzyme was preincubated with test compound, dissolved in DMSO (1% v/v), for 5 min and the reaction was initiated by the addition of xanthine.

Alpha-glucosidase MAL12 = Alpha-glucosidase MAL12 (Saccharomyces cerevisiae (strain ATCC 204508 / S288c), UniProt P53341); assay: Alpha-Glucosidase Assay
Method: The assay was performed using isolated phenolics from maize, and inhibition was determined according to previously described method.

Alpha-glucosidase MAL12, sequence (P53341 whole entry): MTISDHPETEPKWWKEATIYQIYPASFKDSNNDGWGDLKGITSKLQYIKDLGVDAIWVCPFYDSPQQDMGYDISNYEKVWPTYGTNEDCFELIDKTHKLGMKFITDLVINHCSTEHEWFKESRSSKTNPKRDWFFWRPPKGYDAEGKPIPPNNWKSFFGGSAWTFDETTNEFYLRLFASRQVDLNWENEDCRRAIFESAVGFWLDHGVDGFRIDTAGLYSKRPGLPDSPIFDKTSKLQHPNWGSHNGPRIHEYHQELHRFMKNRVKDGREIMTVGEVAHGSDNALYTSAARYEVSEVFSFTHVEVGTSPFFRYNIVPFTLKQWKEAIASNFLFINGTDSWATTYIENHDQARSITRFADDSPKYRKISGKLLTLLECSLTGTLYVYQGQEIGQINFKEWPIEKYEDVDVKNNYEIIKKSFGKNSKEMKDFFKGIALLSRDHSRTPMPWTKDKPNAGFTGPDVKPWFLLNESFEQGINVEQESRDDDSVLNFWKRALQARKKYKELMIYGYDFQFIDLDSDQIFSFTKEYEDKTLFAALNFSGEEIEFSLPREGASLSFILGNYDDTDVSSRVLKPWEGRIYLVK
Xanthine dehydrogenase/oxidase, sequence (P80457 whole entry): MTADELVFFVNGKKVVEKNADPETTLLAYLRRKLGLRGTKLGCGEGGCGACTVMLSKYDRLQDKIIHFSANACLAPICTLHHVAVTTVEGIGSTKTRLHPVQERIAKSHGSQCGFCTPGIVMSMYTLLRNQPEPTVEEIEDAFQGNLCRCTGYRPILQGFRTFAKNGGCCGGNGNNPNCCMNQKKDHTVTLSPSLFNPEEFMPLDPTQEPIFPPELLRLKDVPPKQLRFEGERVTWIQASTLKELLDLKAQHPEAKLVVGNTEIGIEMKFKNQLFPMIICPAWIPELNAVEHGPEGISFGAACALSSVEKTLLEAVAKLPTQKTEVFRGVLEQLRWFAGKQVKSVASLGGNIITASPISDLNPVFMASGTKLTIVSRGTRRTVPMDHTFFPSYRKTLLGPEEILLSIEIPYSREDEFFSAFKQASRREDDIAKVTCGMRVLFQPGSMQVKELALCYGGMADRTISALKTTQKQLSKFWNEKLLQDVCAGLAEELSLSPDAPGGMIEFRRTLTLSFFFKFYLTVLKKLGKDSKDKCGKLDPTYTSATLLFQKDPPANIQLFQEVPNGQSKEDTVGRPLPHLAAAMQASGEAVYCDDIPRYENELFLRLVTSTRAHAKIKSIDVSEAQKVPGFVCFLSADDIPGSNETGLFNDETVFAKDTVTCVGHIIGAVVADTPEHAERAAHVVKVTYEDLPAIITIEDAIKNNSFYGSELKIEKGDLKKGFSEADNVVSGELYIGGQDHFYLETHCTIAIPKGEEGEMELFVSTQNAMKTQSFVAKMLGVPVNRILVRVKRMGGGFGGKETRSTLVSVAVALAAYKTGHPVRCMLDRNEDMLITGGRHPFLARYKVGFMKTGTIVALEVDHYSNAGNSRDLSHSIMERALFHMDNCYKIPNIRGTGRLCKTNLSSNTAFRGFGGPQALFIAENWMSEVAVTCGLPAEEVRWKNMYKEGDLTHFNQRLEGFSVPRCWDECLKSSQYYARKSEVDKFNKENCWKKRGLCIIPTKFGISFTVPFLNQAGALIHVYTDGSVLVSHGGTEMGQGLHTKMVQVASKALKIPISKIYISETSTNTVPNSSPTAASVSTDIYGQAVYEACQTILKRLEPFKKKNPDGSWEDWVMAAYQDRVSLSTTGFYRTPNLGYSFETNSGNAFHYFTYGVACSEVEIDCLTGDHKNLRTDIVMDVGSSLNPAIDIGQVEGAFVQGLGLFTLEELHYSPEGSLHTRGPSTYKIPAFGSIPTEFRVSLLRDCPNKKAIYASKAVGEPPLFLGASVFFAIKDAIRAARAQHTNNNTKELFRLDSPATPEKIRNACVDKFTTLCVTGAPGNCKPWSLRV

| SMILES | IC50 [1] [µM] | IC50 (Alpha-glucosidase MAL12) [µM] |
| --- | --- | --- |
| O=C(O)c1c(O)cc(O)cc1O [2,4,6-trihydroxybenzoic acid (M3)] | 6.5 | 113 |
| CC[C@H]1O[C@@H](Oc2c(-c3ccc(O)c(OC)c3)oc3cc(O)cc(=O)c-3c2O)[C@H](O)[C@@H](O)[C@@H]1O [3‐{[(2S,3R,4S,5S,6R)‐6‐ethyl‐3,4,5‐trihydroxyoxan‐2‐ yl]oxy}‐5,7‐dihydroxy‐2‐(4‐hydroxy‐3‐ methoxyphenyl)‐4H‐chromen‐4‐one] | 8.6 | 246 |
| COc1cc(C(=O)O)ccc1O [4-hydroxy-3-methoxybenzoic acid] | 8.5 | 205 |
| O=c1cc(O)cc2oc(-c3ccc(O)cc3)c(OC3OC(CO)C(O)C(O)C3O)cc1-2 [5,7‐dihydroxy‐2‐(4‐hydroxyphenyl)‐3‐ {[(2S,3R,4S,5S,6R)‐3,4,5‐trihydroxy‐6‐ (hydroxymethyl)oxan‐2‐yl]oxy}‐1λ⁴‐chromen‐1‐ylium] | 7 | 198 |
| COc1cc(-c2oc3cc(O)cc(=O)c-3cc2OC2OC(CO)C(O)C(O)C2O)ccc1O [5,7‐dihydroxy‐2‐(4‐hydroxy‐3‐methoxyphenyl)‐3‐ {[(2S,3R,4S,5S,6R)‐3,4,5‐trihydroxy‐6‐ (hydroxymethyl)oxan‐2‐yl]oxy}‐1λ⁴‐chromen‐1‐ylium] | 8.7 | 260 |
| O=c1cc(O)cc2oc(-c3ccc(O)c(O)c3)c(OC3OC(CO)C(O)C(O)C3O)cc1-2 (stereo not drawn) [Cyanidin-3-glucoside (M8)] | 7.2 | 221 |
| COc1cc(/C=C/C(=O)O)ccc1O [Ferulic acid (M5)] | 8.2 | 251 |
| O=C(O)c1ccc(O)c(O)c1 [Protocatechuic acid (M1)] | 5.8 | 85.1 |
| O=C(O)/C=C/c1ccc(O)cc1 [p-Coumaric Acid] | 6.8 | 90.8 |
